These results are taken from patent US12286423B2, “Antiviral 1,3-di-oxo-indene compounds” (Novartis AG, priority 2020, dated 2025).

In general, EC50 refers to the concentration that produces a half-maximal response. One may read the CC50 as the concentration that lowers cell viability or growth by half.

The structures appear in SMILES notation.

Common to all, as to format: cell-based
One series relates to C15_C3 REPLICON
Put plainly: C15_C3 replicon assay.

Another series relates to HRV A16. As to the kind of experiment: HRV A16 CPE inhibition assay. The conditions noted are these: Human rhinovirus sp.; HRV A16, cytopathic effect inhibition. On the procedure: (§1) Bioactivity of the Compounds of the Invention was Determined Using the Following Methods. Determination of Drug Efficacy Against Picornaviruses Using Cytopathic Effect (CPE) Inhibition Assay
(§2) In the assay, HeLa (human cervical cancer cells), MRC-5 (human fetal lung fibroblast cells), and RD cells (derived from human rhabdomyosarcoma) were employed. For comparison, ribavirin (Riv), Pleconaril (pleco), and […] (BTA) were used as controls. Reagents were dissolved at a concentration of 10-40 mg/ml in 100% dimethyl sulfoxide (DMSO). Water-soluble reagents were dissolved in PBS (−) solution and stored at −20° C. On the day of the experiment, they were used in 3 fold to 5 fold concentrations in such a manner that the concentration of dimethyl sulfoxide in each well was between 0.5% and 1%.
(§3) Pharmaceutical efficacy was determined using a virus-induced cytopathic effect (CPE) inhibition assay. In this regard, after cells suitable for viruses were grown in 96-well plates, dilutions of viruses in DME supplemented with 2% FBS (DME/2% FBS) or MEM supplemented with 2% FBS (MEM/2% FBS) were inoculated in an amount of […] with a concentration corresponding to 100 CCID50 (50% cell culture infective dose) into each well of the plates, and incubated for 30 min-1 hr at 33° C. or 37° C. to allow the viruses to adsorb onto the cells. The culture medium was removed before aliquots of drug dilutions with various concentrations were added in an amount of 100 μl to each well. While HRV (human rhinovirus) was grown at 33° C., the other viruses were incubated in a 37° C. CO2 incubator for 2-3 days. Alternatively, the cells were cultured for 2-3 days without removal of the medium after they were added with 50 μl of each drug dilution having a 2-fold higher concentration and then with 50 μl of the virus dilution. Viruses were incubated in host HeLa cells at 37° C. for 2-3 days in DME/2% or MEM/2% FBS.
(§4) For HeLa cells, the drugs were measured for EC50 (50% maximal effective concentration), which is the concentration of a drug inducing a response halfway between the baseline and maximum, using an MTT assay. With regard to RD and MRC-5 cells, CPE was determined using FDA (Fluorescein diacetate) or MTT. In order to determine the effect of drug toxicity on efficacy results, at the time of inoculation with the virus, mock-infection was also included. A virus-free medium was added to a cell culture, which was then subjected to the same treatment as the mock-infected cells inoculated with the virus. That is, the medium was removed after one hour of incubation, and dilutions of drugs in the medium were added once more. Following incubation for 2-3 days, the cells were observed under a microscope and the drugs were determined for CC50 (50% cytotoxic concentration) at which 50% of the cells were killed, using an MTT assay in which counts of viable cells in mock-infected wells containing drugs were compared to those of viable cells in control wells containing no drugs. In an FDA hydrolysis assay, FDA was added to each well after removal of the medium, and incubated for 20-30 min before fluorescence intensity was measured using a spectrofluorometer to determine CPE in the same manner as in MTT.
(§5) In addition, antiviral effects can be calculated using Mathematical Formula 2 below: Antiviral Effect=[A(Drug/Virus)−A(Virus Control)/A(Cell control)−A(Virus Control)]
(§6) If the survival rate is 100%, its antiviral effect is 100% whereas if the survival rate is 0%, its antiviral effect is none. […]
(§7) Specifically, cells grown to confluence in 96-well plates were infected with 100 50% cell culture infected doses (CCID50) of virus. After an adsorption period of 2 hrs at 37° C., the virus was removed and serial dilutions of the compounds were added. […] After removal of the medium, 90 μl of a culture medium and 10 μl of MTS-phenazine methosulfate (Promega, Leiden, The Netherlands) were added to each well. […]
Background: Protection from cytopathic effect is a common read-out in antiviral testing.

Series [1] is described as follows: Cytotoxicity (CC50) in mock-infected cells, MTT assay. To be noted: human, HeLa cells (mock-infected), 50% cytotoxic concentration, read-out: CYTOTOX (CC50 μM). On the procedure: as §4
That is, the survival rate (% survival) of mock-infected cells for cytotoxicity measurement was calculated using the Mathematical Formula 1 below: Cell Drug=Survival by [A(Drug)−A(Background solution)/A(Cell control)−A(Background×100% Solution)]
While 100% cell survival means no cytotoxicity of the drug, the highest cytotoxicity is reflected by 0% cell survival. The 50% cytotoxic concentration was defined as the concentration required to reduce the cell number by 50%. This concentration of the drug is represented as CC50. Higher values mean lower cytotoxicity. […]
In Mathematical Formulae 3 and 4 above, • OD (CC) represents the OD of the background cell culture that is neither induced by a virus nor treated by chemical, • OD (VC) represents the OD of the control cell culture that is induced by a virus but not treated by chemical, • OD (Virus+Compound) represents the OD of the cell culture infected by a virus that has been treated with a concentrated compound, • OD (Compound) represents the OD of the cell culture that has been treated with a concentrated compound only, and • OD (Blank) represents the OD of the well to which only the cell culture has been added.
The effective concentration (EC50) represents the concentration of a drug at which 50% of cells are allowed to survive by CPE of an induced virus, and the cytotoxicity concentration (CC50) represents the concentration of a drug at which a compound has killed 50% of cells, and they were calculated by the logarithmic interpolation.
Background: Tetrazolium dyes change colour on reduction, which living cells bring about.

A further series deals with HRV B14. As to the kind of experiment: HRV B14 CPE inhibition assay. The conditions noted are these: Human rhinovirus sp.; HRV B14, cytopathic effect inhibition. On the procedure:
as §1, §2, §3, §4, §5, §6, §7

In the next series the test system is HRV A29. As to the kind of experiment: HRV A29 CPE inhibition assay. The conditions noted are these: Human rhinovirus sp.; HRV A29, cytopathic effect inhibition. The method, then: as §1, §2, §3, §4, §5, §6, §7

Regarding `C[C@H](c1ccc2c(c1)O[C@]1(O)c3cccc(N)c3C(=O)[C@]21NC(=O)[C@H]([C@H](C)O)N(C)C)C1CC1` [Example 15, (2S,3S)—N-((4bR,9bR)-1-amino-7-((S)-1-cyclopropylethyl)-4b-hydroxy-10-oxo-4b,10-dihydro-9bH-indeno[1,2-b]benzofuran-9b-yl)-2-(dimethylamino)-3-hydroxybutanamide], the EC50 in the series with C15_C3 REPLICON came to 0.264 µM; with HRV A16 it was 0.213 µM; in the series on HRV B14 it was 0.016 µM. The CC50 in series [1] was found to be 45.2 µM.
For `C[C@@H]1C[C@@H]1c1ccc2c(c1)O[C@]1(O)c3cccc(N)c3C(=O)[C@]21NC(=O)CN1CCC1` [Example 2, N-((4bR,9bR)-1-amino-4b-hydroxy-7-((1S,2R)-2-methylcyclopropyl)-10-oxo-4b,10-dihydro-9bH-indeno[1,2-b]benzofuran-9b-yl)-2-(azetidin-1-yl)acetamide], the EC50 in the series with C15_C3 REPLICON was 0.853 µM; with HRV A16 it was 0.092 µM; in the series with HRV B14, 0.016 µM. Moreover, in series [1], the CC50 amounted to 27.3 µM.
On the same counts, the results for `CCC(C)c1ccc2c(c1)OC1(O)c3cccc(N)c3C(=O)C21NC(=O)c1[nH]cc(S(C)(=O)=O)c1C` (centres unmarked) [Example 23, N-(1-amino-7-(sec-butyl)-4b-hydroxy-10-oxo-4b,10-dihydro-9bH-indeno[1,2-b]benzofuran-9b-yl)-3-methyl-4-(methylsulfonyl)-1H-pyrrole-2-carboxamide] are 0.633 µM, 0.071 µM, 0.016 µM and 22.4 µM.
`Cc1c(S(C)(=O)=O)c[nH]c1C(=O)NC12C(=O)c3c(N)cccc3C1(O)Oc1cc([C@@H]3C[C@@H]3C)ccc12` (stereo partly drawn) [Example 16, N-(1-amino-4b-hydroxy-7-((1R,2S)-2-methylcyclopropyl)-10-oxo-4b,10-dihydro-9bH-indeno[1,2-b]benzofuran-9b-yl)-3-methyl-4-(methylsulfonyl)-1H-pyrrole-2-carboxamide]: the EC50 in the series with C15_C3 REPLICON worked out at 1.82 µM; with HRV A16, 0.199 µM; in the series with HRV A29 it was 0.104 µM; in the series on HRV B14, 0.016 µM. Further, the CC50 in series [1] was determined as 37.7 µM.
For `Cc1[nH]c(C(=O)NC23C(=O)c4c(N)cccc4C2(O)Oc2cc(C(C)C)ccc23)c(C)c1S(N)(=O)=O` (centres unmarked) [Example 25, N-(1-amino-4b-hydroxy-7-isopropyl-10-oxo-4b,10-dihydro-9bH-indeno[1,2-b]benzofuran-9b-yl)-3,5-dimethyl-4-sulfamoyl-1H-pyrrole-2-carboxamide], the EC50 was determined as 2.04 µM with C15_C3 REPLICON, 0.14 µM in the series with HRV A16 and 0.016 µM with HRV B14. Besides, the CC50 in series [1] was 27 µM.
Regarding `Cc1c(C(=O)NC23C(=O)c4c(N)cccc4C2(O)Oc2cc(C(C)C)ccc23)[nH]c(S(=O)(=O)NCCN(C)C)c1C` (centres unmarked) [Example 4, N-(1-amino-4b-hydroxy-7-isopropyl-10-oxo-4b,10-dihydro-9bH-indeno[1,2-b]benzofuran-9b-yl)-5-(N-(2-(dimethylamino)ethyl)sulfamoyl)-3,4-dimethyl-1H-pyrrole-2-carboxamide], the EC50 was determined as 2.39 µM in the series on C15_C3 REPLICON, 0.056 µM in the series on HRV A16 and 0.016 µM in the series with HRV B14. Moreover, the CC50 in series [1] was 8.58 µM.
As to `Cc1c(S(C)(=O)=O)c[nH]c1C(=O)NC12C(=O)c3c(N)cccc3C1(O)Oc1cc(C3CCC3C)ccc12` (centres unmarked) [Example 7, N-(1-amino-4b-hydroxy-7-(2-methylcyclobutyl)-10-oxo-4b,10-dihydro-9bH-indeno[1,2-b]benzofuran-9b-yl)-3-methyl-4-(methylsulfonyl)-1H-pyrrole-2-carboxamide], the figures for the EC50 in the series on C15_C3 REPLICON and in the series with HRV A16 were 1.62 µM and 0.065 µM, respectively. Moreover, the CC50 in series [1] is 12 µM.
As to `C[C@H](O)[C@@H](C(=O)NC12C(=O)c3c(N)cccc3C1(O)Oc1cc([C@H](C)C3CC3)ccc12)N(C)C` (stereo partly drawn) [Example 10, (2S,3S)—N-(1-amino-7-((R)-1-cyclopropylethyl)-4b-hydroxy-10-oxo-4b,10-dihydro-9bH-indeno[1,2-b]benzofuran-9b-yl)-2-(dimethylamino)-3-hydroxybutanamide], the figures for the 50% effective concentration (EC50) in the series with C15_C3 REPLICON, in the series with HRV A16 and with HRV B14 were 0.632 µM, 0.661 µM and 0.016 µM, respectively. Moreover, the CC50 in series [1] is 29.2 µM.
For `Cc1cc(S(=O)(=O)N2CC[C@H](N(C)C)C2)[nH]c1C(=O)NC12C(=O)c3c(N)cccc3C1(O)Oc1cc([C@H]3C[C@@H]3C)ccc12` (mixture of isomers) [Example 11, N-(1-amino-4b-hydroxy-7-((1S,2S)-2-methylcyclopropyl)-10-oxo-4b,10-dihydro-9bH-indeno[1,2-b]benzofuran-9b-yl)-5-(((S)-3-(dimethylamino)pyrrolidin-1-yl)sulfonyl)-3-methyl-1H-pyrrole-2-carboxamide], in that order: 2.54 µM, 0.023 µM, 0.016 µM and 12.1 µM.
Consider `Cc1cc(S(=O)(=O)N2CCN(C)CC2)[nH]c1C(=O)NC12C(=O)c3c(N)cccc3C1(O)Oc1cc([C@H]3C[C@@H]3C)ccc12` (mixture of isomers) [Example 9, N-(1-Amino-4b-hydroxy-7-((trans)-2-methylcyclopropyl)-10-oxo-4b,10-dihydro-9bH-indeno[1,2-b]benzofuran-9b-yl)-3-methyl-5-((4-methylpiperazin-1-yl)sulfonyl)-1H-pyrrole-2-carboxamide], for which the EC50 in the series with C15_C3 REPLICON came to 1.09 µM; with HRV A16, 0.02 µM; in the series on HRV B14 it was 0.016 µM. The CC50 in series [1] stood at 25.6 µM.
On the same counts, the results for `Cc1c(S(C)(=O)=O)c[nH]c1C(=O)NC12C(=O)c3c(N)cccc3C1(O)Oc1cc([C@]3(C)C[C@@H]3C)ccc12` (stereo partly drawn) [Example 6, N-(1-amino-7-((1R,2S)-1,2-dimethylcyclopropyl)-4b-hydroxy-10-oxo-4b,10-dihydro-9bH-indeno[1,2-b]benzofuran-9b-yl)-3-methyl-4-(methylsulfonyl)-1H-pyrrole-2-carboxamide] are 1.18 µM, 0.046 µM, 0.016 µM and 19.1 µM.
